Assay results as given in PMC10269165 (Antimicrobial Agents and Chemotherapy, 2023).

Assays:
Type in all cases: cell-based, Haemonchus contortus
[1] = test system: H. contortus, susceptible (TxPh-2011-S) and MDR (UGA MDR 2020) isolates; test: Larval development assay (LDA)
[2] = test system: MDR isolate of H. contortus, exsheathed L3 larvae; test: Larval motility assay (LMA), Worminator
Description: The H. contortus isolates used were TxPh-2011-S (Texas A&M University, USA) and UGA MDR 2020 (University of Georgia Athens, USA). TxPh-2011-S (Texas A&M University, USA) was originally isolated from Pronghorn antelope in West Texas in 2011 and is fully drug susceptible, phenotypically determined by the DrenchRite larval development assay (LDA; Microbial Screening Technologies, Kemps Creek, Australia). To establish this as a laboratory isolate, it was initially passaged in goats at Texas A&M University and then at The University of Georgia using both goats and sheep, and it is currently maintained in lambs at Louisiana State University. A nemabiome assay ([69]) was conducted at the University of Calgary to confirm that the isolate is 100% H. contortus. The UGA MDR 2020 (University of Georgia Athens, USA) isolate is resistant to ivermectin, benzimidazoles, levamisole, and moxidectin, as determined by the DrenchRite LDA. To establish this as a laboratory isolate, feces collected from a sheep farm in Georgia with known history of multiple anthelmintic resistance were cultured. Two donor goats were infected with the larvae recovered, which were morphologically ([70]) identified as 89% H. contortus. A fecal egg count reduction test (FECRT) was then performed in the infected goats. First, a combination treatment with albendazole at 15 mg/kg and ivermectin at 0.4 mg/kg was performed, followed by a treatment with levamisole at 12 mg/kg. Later, and to confirm resistance to moxidectin, another treatment was administered using a dose of 0.4 mg/kg of moxidectin. Posttreatment feces were recovered, coprocultures were established, and L3 larvae were identified as 100% H. contortus. Resistance to all drugs was subsequently confirmed using a DrenchRite assay.
For LMAs, the first phase testing using compounds NSC133100 and NSC177383 was done using the Worminator system in parallel with the LDA. Initial stock solutions of 12.5 mM were prepared for each compound using 100% DMSO as a solvent. Initial stock solutions (25 μL) were then diluted in 475 μL of culture media to yield working stock solutions of 625.00, 156.30, 39.10, 9.80, 2.40, 0.60, 0.20, 0.04, and 0.00 μM in 5% DMSO for each drug. In plate, 200 μL of working stock solutions were then diluted in 800 μL of culture media, yielding concentrations of 125.00, 31.25, 7.81, 1.95, 0.49, 0.12, and 0.00 μM in 1% DMSO. For the second phase of testing, compounds showing anthelmintic activity with the LDA were tested in a second round at higher concentrations than in the first phase of testing. Initial stocks of 50 mM were prepared for compounds NSC133100, NSC177383, NSC145612, and NSC56410 using 100% DMSO as a solvent. Initial stock solutions (25-μL portions) were then diluted in 475 μL of culture media consisting of 65% Lauria-Bertani (LB) (Thermo Fisher Scientific, Branchburg, NJ), 25% NCTC (Sigma-Aldrich), 10% fetal bovine serum (Atlanta Biologicals, Flowery Branch, GA), Pen/Strep (Sigma-Aldrich) at a final concentration of […], and amphotericin B (Sigma-Aldrich) at a final concentration of […]. The working stock solutions yielded concentrations of 2,500.00, 625.00, 156.30, 39.10, 9.80, 2.40, and 0.00 μM in 5% DMSO for each compound. In each well in the plate, 200 μL of working stock solutions were then diluted in 800 μL of culture media, yielding final concentrations of 500.00, 125.00, 31.30, 7.81, 1.95, 0.49, and 0.00 μM in 1% DMSO.
For the motility assays, 24-well plates with inserts were used (Costar, catalog no. 3379; Corning, Inc., Corning, NY). Portions (640 μL) of culture media were added to each well, and approximately 50 exsheathed larvae contained in 160 μL of culture media in each insert. Once pretreatment readings were taken, 160 μL of the drug solution was added to the well, and another 40 μL was added to the insert, reaching the final concentrations described in the protocol above. All concentrations were tested in triplicate. […]

[3] = test system: MDR isolate of H. contortus, exsheathed L3 larvae; test: Larval motility assay (LMA), Worminator; remark: listed apart in the source

CO[C@@H]1/C=C/O[C@@]2(C)Oc3c(C)c(O)c4c(c3C2=O)C(=N[C@@H]2CC[C@@H](O)O[C@H]2C)C=C(NC(=O)/C(C)=C\C(=O)[C@@H]2C[C@@H]2[C@H](O)[C@@H](C)[C@@H](O)[C@@H](C)[C@H](OC(C)=O)[C@@H]1C)C4=O [NSC177383]
fold higher potency than NSC145612 ([1]; LDA IC50): ~ 7 fold | Hill slope ([1]; LDA dose-response curve): 1.23 | anthelmintic activity in LDA ([1]; drug-susceptible and MDR isolates): activity in the lower micromolar range | Percent inhibition of larval motility ([2]; 15.625 µM, 1 hour): -22.8% | Percent inhibition of larval motility ([2]; 15.625 µM, 4 hours): -24.6% | Percent inhibition of larval motility ([2]; 15.625 µM, 24 hours): 15.6% | Percent inhibition of larval motility ([2]; 15.625 µM, 48 hours): 3.0% | Percent inhibition of larval motility ([2]; 15.625 µM, 72 hours): -5.8% | Percent inhibition of larval motility ([2]; 15.625 µM, 96 hours): -22.4% | Percent inhibition of larval motility ([2]; 15.625 µM, Initial): 19.9% | Percent inhibition of larval motility ([2]; 31.25 µM, 1 hour): 2.3% | Percent inhibition of larval motility ([2]; 31.25 µM, 4 hours): 5.2% | Percent inhibition of larval motility ([2]; 31.25 µM, 24 hours): 13.8% | Percent inhibition of larval motility ([2]; 31.25 µM, 48 hours): 41.2% | Percent inhibition of larval motility ([2]; 31.25 µM, 72 hours): 25.5% | Percent inhibition of larval motility ([2]; 31.25 µM, 96 hours): 17.1% | Percent inhibition of larval motility ([2]; 31.25 µM, Initial): 23.2% | Percent inhibition of larval motility ([2]; 62.5 µM, 4 hours): -28.6% | Percent inhibition of larval motility ([2]; 62.5 µM, 24 hours): 23.5% | Percent inhibition of larval motility ([2]; 62.5 µM, 48 hours): 26.0% | Percent inhibition of larval motility ([2]; 125 µM, 1 hour): 26.8% | Percent inhibition of larval motility ([2]; 125 µM, 4 hours): -34.1% | Percent inhibition of larval motility ([2]; 125 µM, 24 hours): 20.5% | Percent inhibition of larval motility ([2]; 125 µM, 48 hours): 31.1% | Percent inhibition of larval motility ([2]; 125 µM, 72 hours): 4.1% | Percent inhibition of larval motility ([2]; 125 µM, 96 hours): 5.7% | Percent inhibition of larval motility ([2]; 125 µM, Initial): 22.5% | Percent inhibition of larval motility ([2]; 250 µM, 1 hour): 28.8% | Percent inhibition of larval motility ([2]; 250 µM, 24 hours): 30.2% | Percent inhibition of larval motility ([2]; 250 µM, 48 hours): 44.8% | Percent inhibition of larval motility ([2]; 250 µM, 96 hours): 31.2% | Percent inhibition of larval motility ([2]; 250 µM, Initial): 43.9% | Percent inhibition of larval motility ([2]; 500 µM, 1 hour): 27.1% | Percent inhibition of larval motility ([2]; 500 µM, 4 hours): -12.9% | Percent inhibition of larval motility ([2]; 500 µM, 24 hours): 26.6% | Percent inhibition of larval motility ([2]; 500 µM, 48 hours): 49.1% | Percent inhibition of larval motility ([2]; 500 µM, 72 hours): 32.3% | Percent inhibition of larval motility ([2]; 500 µM, 96 hours): 21.4% | Percent inhibition of larval motility ([2]; 500 µM, Initial): 36.4% | Percent inhibition of larval motility ([3]; 62.5 µM, 1 hour): 3.9% | Percent inhibition of larval motility ([3]; 62.5 µM, 72 hours): 19.1% | Percent inhibition of larval motility ([3]; 62.5 µM, 96 hours): 14.7% | Percent inhibition of larval motility ([3]; 62.5 µM, Initial): 16.5% | Percent inhibition of larval motility ([3]; 250 µM, 4 hours): -42.2% | Percent inhibition of larval motility ([3]; 250 µM, 72 hours): 46.1%
